{"source": "patent US20120045459A1", "about": "“Methods for Treating Autophagy-Related Disorders” (Van Andel Research Institute, priority 2009, published 2012)", "key": {"U2OS cells [1]": {"system": "U2OS cells", "assay": "LC3B immunofluorescence of autophagic vesicles", "type": "cell-based, human", "details": "full growth medium, 25 uM chloroquine, 1 hr", "protocol": "Immunofluorescence and western blot analyses. U2OS cells were seeded at a density of 35,000 cells per well in McCoy's 5A medium supplemented with 10% FBS on number 1.5 coverglass in 24-well tissue culture plates (for immunofluorescence) or 150,000 cells per well on 6-well dishes (for western blot). After 24 h, siRNAs were transfected at a final concentration of 25 nM using 2 μl HiPerfect transfection reagents (Qiagen) per ml medium. Control siRNA was All-star negative control (Qiagen) and PTPRS siRNAs were two unique sequences (SI02759288, SI03056284, Qiagen). […] For western blots, cells were lysed (in 10 mM KPO4, 1 mM EDTA, 10 mM MgCl2, 5 mM EGTA, 50 mM bisglycerophosphate, 0.5% NP40, 0.1% Brij35, 0.1% sodium deoxycholate, 1 mM NaVO4, 5 mM NaF, 2 mM DTT, AEBSF, aprotinin, bestatin hydrochloride, E64, leupeptin, and pepstatin A and 20 μg of total protein was resolved by SDS-PAGE. Membranes were probed with primary antibodies (LC3B, Cell Signaling Technologies; α-tubulin, Sigma) for 16 h at 4° C. followed by secondary antibodies (HRP-linked anti-rabbit or anti-mouse IgG) for 1 h at room temperature. Proteins were detected by enhanced chemiluminescence. For immunofluorescence, cells were fixed with 3.7% formaldehyde, permeabilized with 0.2% Triton-X 100, and blocked with 3% bovine serum albumin (BSA) in PBS. […]"}, "U2OS cells [2]": {"system": "U2OS cells", "assay": "Transmission electron microscopy of autophagic vesicles", "type": "cell-based, human", "details": "compared with control cells in full nutrients", "protocol": "Transmission electron microscopy (TEM). U2OS cells in 10-cm dishes were transfected with control or PTPRS siRNAs for 48 h. Cells were briefly trypsinized, pelleted, rinsed, and resuspended in 2% glutaraldehyde fixative. Cell pellets were embedded in 2% agarose, postfixed in osmium tetroxide, and dehydrated with an acetone series. […] Ultrathin sections (70 nm) were generated with a Power Tome XL (Boeckeler Instruments) and placed on copper grids. Cells were examined using a JEOL 100CX Transmission Electron Microscope at 100 kV. Autophagic structures were quantified from images encompassing approximately 8.5 μm2 of cell area each."}}}
{"smiles": "CCN(CC)CCCC(C)Nc1ccnc2cc(Cl)ccc12", "note": "(centres unmarked) [chloroquine]", "values": [{"measurement": "LC3-positive aggregates (AVs)", "setting": "U2OS cells [1]", "result": "LC3-positive aggregates accumulate"}, {"measurement": "autophagic vesicles (AVs) by TEM", "setting": "U2OS cells [2]", "result": "evident"}]}
